{
  "source": "paper PMC6138628",
  "about": "“Enhanced uptake of gH625 by blood brain barrier compared to liver in vivo: characterization of the mechanism by an in vitro model and implications for delivery” (Scientific Reports, 2018)",
  "key": {"[1]": {"tested_on": "human neuroblastoma and glioblastoma astrocytoma", "design": "method as in PMID 25792823", "conditions": "human neuroblastoma and glioblastoma astrocytoma cells; cited from earlier work"}, "[2]": {"design": "method as in PMID 25792823", "conditions": "after 3.5 h of incubation in serum; cited from earlier work"}, "[3]": {"assay": "Tryptophan fluorescence, binding isotherm and partition coefficient", "type": "physicochemical", "conditions": "peptide 4 µM, λex 295 nm", "method": "Emission spectra of the tryptophan contained in the peptide (4 µM) in the absence or presence of target vesicles were recorded between 300 and 400 nm with λex 295 nm in order to determine the presence of the peptide inside the membrane. To establish the strength of peptide-lipid interaction, LUVs were added to the peptide solution (4 µM) and the fluorescence intensity was recorded as a function of the lipid/peptide molar ratio (L/P), in three to four separate experiments. The results were corrected for the dilution factor. We used an L/P ratio of 200:1. […] F∞ was obtained by extrapolation of a double reciprocal plot of the total peptide fluorescence vs the total lipid concentration in the outer leaflet. The fraction of membrane-bound peptide, fb, was determined by fb = (F − F0)/(F∞ − F0), where F represents the fluorescence of peptide after the addition of the vesicles and F0 represents the fluorescence of the unbound peptide. fb allowed us to calculate the equilibrium concentration of the free peptide in the solution, Cf, and the extent of peptide binding Xb. […]\nThe presence of a tryptophan residue in the middle of the sequence of gH625, allowed the evaluation of the degree of peptide penetration into liposomes of different composition. In particular, we compared the fluorescence emission spectra in vesicles mimicking the BBB and the liver with that in buffer. […]"}, "[4]": {"assay": "Circular dichroism spectroscopy", "type": "physicochemical", "conditions": "CD, peptide 8 µM, P/L 0.08; for Helix content: [θ]222, according to Chakrabartty et al., lipid 100 µM, 5 mM phosphate buffer, room temperature", "method": "The samples were vortexed and lyophilized overnight.\nCD spectra were recorded at room temperature on a Jasco J-715 spectropolarimeter in a 0.1 cm quartz cell. The spectra are an average of 3 consecutive scans from 260 to 190 nm, recorded with a band width of 3 nm, a time constant of 16 s, and a scan rate of 10 nm/min. Spectra were recorded and corrected for the blank. Mean residue ellipticities (MRE) were calculated as MRE = Obsd/lcn (Obsd is the ellipticity measured in millidegrees, l is the path length of the cell in cm, c is the peptide concentration in mol/l, and n is the number of amino acid residues in the peptide). A solution of 8 µM of peptide with SUVs, was prepared as previously described. […] The percentage of helix was calculated from measurements of their mean residue ellipticity at 222 nm[44]. We used [ϑ]222 values of 0 and −40.000(1–2.5/n) deg cm^2 dmol^−1 per amino acid residue for 0% and 100% helicity; n is the number of amino acid residues. The ratio of the ellipticities at 222 and 208 nm were used to discriminate between monomeric and oligomeric states of helices. The experiment was performed before and after centrifugation to remove eventual precipitated peptides from solution."}},
  "note": "Residues, ends and D or L forms follow the SMILES beside them.",
  "data": [
    {"compound": "CC[C@H](C)[C@H](NC(=O)[C@H](CC(C)C)NC(=O)[C@H](C)NC(=O)[C@H](CC(N)=O)NC(=O)[C@H](Cc1ccc(O)cc1)NC(=O)[C@H](Cc1c[nH]cn1)NC(=O)[C@H](C)NC(=O)[C@H](Cc1c[nH]c2ccccc12)NC(=O)[C@H](CCCNC(=N)N)NC(=O)[C@@H](NC(=O)[C@H](CC(C)C)NC(=O)[C@@H](NC(=O)[C@H](CO)NC(=O)[C@H](C)NC(=O)[C@H](CC(C)C)NC(=O)CNC(=O)[C@@H](N)Cc1c[nH]cn1)[C@@H](C)O)[C@@H](C)O)C(=O)N[C@@H](CCCNC(=N)N)C(=O)N[C@@H](C)C(=O)N[C@@H](Cc1ccccc1)C(N)=O", "note": "[gH625] (H-HGLASTLTRWAHYNALIRAF-NH2)", "values": [
      {"measurement": "Percentage of uptake", "setting": "[1]", "result": "80–90%"},
      {"measurement": "Serum stability, intact peptide", "setting": "[2]", "result": "significant amount of intact peptide"},
      {"measurement": "Tryptophan fluorescence emission (intensity increase, blue shift): penetration into bilayer", "setting": "[3]; BBB mimicking LUVs vs buffer", "result": "capable of penetrating both lipid bilayers"},
      {"measurement": "Tryptophan fluorescence emission (intensity increase, blue shift): penetration into bilayer", "setting": "[3]; liver mimicking LUVs vs buffer", "result": "capable of penetrating both lipid bilayers"},
      {"measurement": "Helix content", "setting": "[4]; BBB mimicking SUVs", "result": 58, "unit": "%"},
      {"measurement": "Helix content", "setting": "[4]; liver mimicking SUVs", "result": 40, "unit": "%"},
      {"measurement": "Ratio θ222/θ208 (monomeric < 0.8, oligomeric > 1.0)", "setting": "[4]; BBB mimicking SUVs", "result": "approximately 0.68"},
      {"measurement": "Ratio θ222/θ208 (monomeric < 0.8, oligomeric > 1.0)", "setting": "[4]; liver mimicking SUVs", "result": "~0.45"}
    ]}
  ]
}
